The text below walks through data of US7741520B2, “Sulfonanilide analogs as selective aromatase modulators (SAMs)” (The Ohio State University Research Foundation, priority 2006, dated 2010).

The experiment deals with CYP19 mRNA expression in SK-BR-3 cells. In words: CYP19 mRNA expression by real-time RT-PCR in SK-BR-3 cells. Format: cell-based, human. To be noted: 5 μM, 24 h (FIG. 14). As for the experimental part: RNA Extraction. Total RNA was isolated using the TRIzol reagent according to the manufacturer's protocol. Total RNA pellets were dissolved in DNase- and RNase-free water and quantitated using a spectrophotometer. The quality of RNA samples was determined by electrophoresis through agarose gels and staining with ethidium bromide; the 18S and 28S rRNA bands were visualized under ultraviolet light.
(§1) cDNA Synthesis. Isolated total RNA (2 μg) was treated with DNase I Amplification grade, according to the recommended protocol to eliminate any DNA before reverse transcription. Treated total RNA was denatured at 65° C. for 5 min in the presence of 2.5 ng/μL random hexamers and 0.5 mM dNTP mix. The samples were snap-cooled on ice and centrifuged briefly. Complementary DNA (cDNA) was synthesized using Superscript II reverse transcriptase according to the recommended protocol. Briefly, the reactions were conducted in the presence of 1× First-Strand Buffer and 20 mM DTT at 42° C. for 50 min and consequently inactivated at 70° C. for 15 min. The cDNA generated was used as a template in realtime PCR reactions.
Real-Time PCR. Real-time PCR was performed using the Opticon 2 system from MJ Research (Waltham, Mass.). For the CYP19 total gene the PCR reaction mixture consisted of Taqman Universal PCR Master Mix (Applied Biosystems), 600 nM of CYP19 primer (sense: 5′-TGTCTCTTTGTTCTTCATGCTATTTCTC-3′ (SEQ ID NO: 1); antisense: 5′-TCACCAATAACAGTCTGGATTTCC-3′) (SEQ ID NO: 2); 250 nM Taqman probe (6FAM 5′-TGCAAAGCACCCTAATGTTGAAGAGGCAAT-3′TAMRA) (SEQ ID NO: 3) (Invitrogen), 18S rRNA (Applied Biosystems, Foster City, Calif.), and 2.0 μL of each RT sample in a final volume of 20 μL. The Taqman probe was designed to anneal to a specific sequence of the aromatase gene between the forward and the reverse primers. Cycling conditions were 50° C. for 2 mm and 95° C. for 10 mm, followed by 50 cycles at 95° C. for 15 s and 60° C. for 1 mm.
RNA extraction. Total RNA was isolated using the TRIzol reagent according to the manufacturer's protocol. Total RNA pellets were dissolved in DNase, RNase-free water and quantitated using a spectrophotometer. The quality of RNA samples was determined by electrophoresis through agarose gels and staining with ethidium bromide; the 18S and 28S rRNA bands were visualized under ultraviolet light.
as §1, with “synthesis.” for “Synthesis.”, “real-time” for “realtime”
Real-time PCR. Real-time PCR was performed using the Opticon™ 2 system from MJ Research (Waltham, Mass.). For the CYP19 total gene the PCR reaction mixture consisted of Taqman® Universal PCR Master Mix (Applied Biosystems), 600 nM of CYP19 primer (sense: 5′-TGTCTCTTTGTTCTTCATGCTATTTCTC-3′ (SEQ ID NO: 1); antisense: 5′-TCACCAATAACAGTCTGGATTTCC-3′) (SEQ ID NO: 2); 250 nM Taqman probe (6FAM 5′-TGCAAAGCACCCTAATGTTGAAGAGGCAAT-3′TAMRA) (SEQ ID NO: 3) (Invitrogen), and 2.0 μL of each cDNA sample in a final volume of 20 μL. […]
As to `CN(c1ccc([N+](=O)[O-])cc1OCc1ccccc1)S(C)(=O)=O` [Compound 26f, N-methyl-N-(2-benzyloxy-4-nitrophenyl) methanesulfonamide], the CYP19 gene expression result is reported as “significantly decreased CYP19 gene expression”.

For the compound `CN(c1ccc([N+](=O)[O-])cc1OCc1ccccc1-c1ccccc1)S(C)(=O)=O` [Compound 29c, N-methyl-N-[2-(2′-phenylbenzyloxy)-4-nitrophenyl]methanesulfonamide], the CYP19 gene expression result is given as “significantly decreased CYP19 gene expression”.

Consider `CN(c1ccc([N+](=O)[O-])cc1OCc1ccc([N+](=O)[O-])cc1)S(C)(=O)=O` [Compound 27c, N-methyl-N-[2-(4′-nitrobenzyloxy)-4-nitrophenyl]methanesulfonamide], for which the CYP19 gene expression result was “significantly decreased CYP19 gene expression”.

On to `CN(c1ccc([N+](=O)[O-])cc1OCc1ccc(F)cc1)S(C)(=O)=O` [Compound 33c, N-methyl-N-[2-(4′-fluorobenzyloxy)-4-nitrophenyl]methanesulfonamide], for which the CYP19 gene expression result is given as “significantly decreased CYP19 gene expression”.

Consider `CN(c1ccc([N+](=O)[O-])cc1OCc1ccc2ccccc2c1)S(C)(=O)=O` [Compound 28c, N-methyl-N-[2-(β-naphthylmethoxy) 4-nitrophenyl]methanesulfonamide], for which the CYP19 gene expression entry is recorded as “significantly decreased CYP19 gene expression”.
